Results on 2 compounds are retold here after patent publication US10537643B2, “Chemoembolization composition comprising anti-angiogenic agents” (CENTRE HOSPITALIER UNIVERSITAIRE VAUDOIS, priority 2010, dated 2020).

Data set [1] can be described thus: Stability / precipitation of sunitinib solutions. The class given is physicochemical. From the text:
However, preparing drug-loaded beads is not a straightforward procedure, especially if they should be loaded with chemotherapeutic agents of low solubility in aqueous media. This solubility can be insufficient to reach useful therapeutic dose, such as for sorafenib tosylate. In the case where apparent solubility is sufficient to reach useful therapeutic dose, it may appear that some delayed precipitation occurs; making impossible the utilization of such preparation in a clinic setup. For example, sunitinib base or malate can be dissolved in standard media used for loading anthracycline drugs, such as doxorubicine. […] In addition, no liquid oral or parenteral solution of any sunitinib salt is commercially available, that could be used to load DEBs. […] WO 2007/090897 further discloses a method for loading beads with water insoluble chemotherapeutic agents by using organic solvents. However, such an approach is not adequate for extemporaneous preparation by the medical staff.
Advantageously, this solution is isotonic to human plasma and it is safe for the parenteral applications. Noteworthy, the sugar is not limited to glucose. Other sugars or polyol could be used such as sucrose, dextran, mannitol, sorbitol or trehalose.

The conditions of data set [2]: cited from earlier work.
Data set [3] can be described thus: Liver enzymes after administration in healthy rabbits. The note with it: sunitinib p.o., unique dose of 6 mg, healthy rabbit.
Experimental: Adult healhy male New Zealand White Rabbits (n=12) weighing between 3.2-2.8 kgs were used.
DC Beads measuring between 100-300 μm (Biocompatibles) were used.
Animals were separated in 3 groups.
Liver enzymes were measured from blood samples obtained by a catheter placed in the vein of the rabbit's ear, immediately before embolization or oral administration of the drug and 6 hours.
The conditions of data set [4]: sunitinib per os, unique dose of 6 mg, rabbit; according to previous pharmacological studies (FDA); cited from earlier work.

For the compound `CCN(CC)CCNC(=O)c1c(C)[nH]c(/C=C2\C(=O)Nc3ccc(F)cc32)c1C` [sunitinib malate], in data set [1] (standard media used for loading anthracycline drugs), the precipitation in solution entry was “precipitate within a short period of time”.
In the case of `CCN(CC)CCNC(=O)c1c(C)[nH]c(/C=C2\C(=O)Nc3ccc(F)cc32)c1C` [sunitinib], the plasma concentrations result in data set [2] (approved starting oral dose 50 mg/day) is “at least 50 ng/ml”. The “patients with serious (grade 3 or 4) adverse events” value in data set [2] (oral sunitinib therapy) was not above 10%. In addition, the “patients requiring dose reductions” value in data set [2] (patients treated for RCC) is 50%. The liver enzymes result in data set [3] is “did not cause any alteration”. For the same compound, in data set [1] (HPLC analysis, sunitinib loaded DC beads preparation), the “stability of the drug” value is listed as “verified”. Further, the “stability of sunitinib solution (precipitation)” value in data set [1] (in presence of sugar, 5% glucose, in contrast to saline or hydrochloric acid solutions) is recorded as “stable, without any precipitation”. Also, the “therapeutic plasmatic concentration (Cmax)” value in data set [4] was 45 to 55 ng/mL.
